Assay results taken from patent US20240190890A1, “MK2 INHIBITORS AND USES THEREOF” (Bristol-Myers Squibb Company, priority 2022, published 2024).

Molecular target: p38a activated, mitogen-activated protein kinase-activated protein kinase 2 (MAPKAP-K2 or MK2) enzyme (Homo sapiens (Human), UniProt P49137)
Experiment: MK2 Omnia continuous-read kinase assay for compound potency
Type: biochemical
Conditions: [MK-2]=0.4 nM, [ATP]=10 μM, [ST3-Sox]=10 μM; room temperature
Excerpt: Mitogen-Activated Protein Kinase-Activated Protein Kinase 2 Omnia® Assay for Compound Potency Assessment:
The protocol below describes a continuous-read kinase assay optimized to measure potency of compounds against p38a activated, mitogen-activated protein kinase-activated protein kinase 2 (MAPKAP-K2 or MK2) enzyme. Further details of this assay are described by Life Technologies, Carlsbad, CA on their website at the following URL: http://tools.lifetechnologies.com/content/sfs/manuals/omnia_kinase_assay_man.pdf. • [Reagent] used: • [MK-2]=0.4 nM, • [ATP]=10 μM and • [ST3-Sox]=10 μM (ATP^appKM=10 μM)
Briefly, 10× stock solutions of MK2 (PV3317, from Life Technologies), 1.13X ATP (AS001A), and Sox conjugated peptide substrate, S/T3-Sox, (KZN1031) were prepared in 1× kinase reaction buffer consisting of 20 mM Tris, pH 7.5, 5 mM MgCl2, 1 mM EGTA, 5 mM β-glycerophosphate, 5% glycerol (10× stock, KB001A) and 0.2 mM DTT (DS001A). Enzyme solution (5 μL) was added to each of DMSO ([…]) or serially diluted test compounds prepared in DMSO in a Corning (#3574) 384-well, white, non-binding surface microtiter plate (Corning, NY). Kinase reactions were started with the addition of 45 μL of the ATP-peptide substrate S/T3-Sox mix and monitored every 71 seconds for 120 minutes at λex360/λem485 in a Synergy H4 plate reader from BioTek (Winooski, VT) at room temperature.
Background signals from the no enzyme control wells were subtracted from all progress curves. The initial linear portions of the net progress curves were fit according to a linear equation to yield the slope and percentage of inhibition (% inhibition) at each compound concentration. The net progress curves obtained during the first two hours of reactions were also fit according to an ascending single-exponential equation (Eq. 1) to yield kobs values at each compound concentration. Plots of % Inhibition versus inhibitor concentrations were fit according to a dose-response equation (Eq. 2) to generate IC50 and Hill slope values while plots of kobs versus inhibitor concentration were fit according to Equation 3 (Eq. 3) to generate apparent kinact/K1 values using the GraphPad PRISM software (Version 6.00; GraphPad San Diego, CA).
where F is the fluorescence intensity from the plate reader, V0 is a constant reflecting the relationship between the instrument readout and product concentration, t is time, e is Euler's number, and kobs is the observed inactivation rate constant.
where % Inhibition is percentage of inhibition, IC50 is half maximal inhibitory concentration, [I] is the inhibitor concentration, and n is the Hill slope.
where kobs is the observed inactivation rate constant, kinact is the apparent inactivation rate constant, K1 is the apparent inhibition constant, and [I] is the inhibitor concentration. […] Potency results for the compounds tested are shown in Table 4 in the column entitled “MK2 IC50.”

Chain of p38a activated, mitogen-activated protein kinase-activated protein kinase 2 (MAPKAP-K2 or MK2) enzyme (P49137 whole entry): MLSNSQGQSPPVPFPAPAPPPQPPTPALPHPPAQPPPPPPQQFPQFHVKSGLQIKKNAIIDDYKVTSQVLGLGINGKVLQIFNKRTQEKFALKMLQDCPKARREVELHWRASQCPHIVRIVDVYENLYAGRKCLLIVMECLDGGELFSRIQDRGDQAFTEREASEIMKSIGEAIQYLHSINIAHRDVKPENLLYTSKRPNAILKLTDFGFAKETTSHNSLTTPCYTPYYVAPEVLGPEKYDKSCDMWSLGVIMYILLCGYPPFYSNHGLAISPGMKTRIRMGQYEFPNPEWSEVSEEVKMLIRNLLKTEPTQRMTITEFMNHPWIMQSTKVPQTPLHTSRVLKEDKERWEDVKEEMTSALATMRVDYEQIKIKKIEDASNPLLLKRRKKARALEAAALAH

IC50 [µM] | Compound
0.001 | C#Cc1cc(-c2ccc3c(ccc4sc5c(c43)NC[C@@H](C)NC5=O)n2)nc(CO)n1 [Example I-78, (R)-3-(6-ethynyl-2-(hydroxymethyl)pyrimidin-4-yl)-10-methyl-9,10,11,12-tetrahydro-8H-[1,4]diazepino[5′,6′:4,5]thieno[3,2-f]quinolin-8-one]
0.027 | C=Cc1cc(N2CCN(C)CC2)nc(-c2ccc3c(ccc4sc5c(c43)NC[C@@H](C)NC5=O)n2)n1 [Example I-62, (R)-10-methyl-3-(4-(4-methylpiperazin-1-yl)-6-vinylpyrimidin-2-yl)-9,10,11,12-tetrahydro-8H-[1,4]diazepino[5′,6′:4,5]thieno[3,2-f]quinolin-8-one]
0.004 | C=Cc1nc(C)cn1-c1ccc2c(ccc3sc4c(c32)NC[C@@H](C)NC4=O)n1 [Example I-206, (R)-10-methyl-3-(4-methyl-2-vinyl-1H-imidazol-1-yl)-9,10,11,12-tetrahydro-8H-[1,4]diazepino[5′,6′:4,5]thieno[3,2-f]quinolin-8-one]
0.042 | C#Cc1cc(-c2ccc3c(ccc4sc5c(c43)NC[C@@H](C)NC5=O)n2)cc(N2CCN(C)CC2)n1 [Example I-95, (R)-3-(2-ethynyl-6-(4-methylpiperazin-1-yl)pyridin-4-yl)-10-methyl-9,10,11,12-tetrahydro-8H-[1,4]diazepino[5′,6′:4,5]thieno[3,2-f]quinolin-8-one]
0.142 | C=Cc1nccc(-c2ccc3c(ccc4sc5c(c43)NC[C@@H](C)NC5=O)n2)c1C [Example I-219, (R)-10-methyl-3-(3-methyl-2-vinylpyridin-4-yl)-9,10,11,12-tetrahydro-8H-[1,4]diazepino[5′,6′:4,5]thieno[3,2-f]quinolin-8-one]
1 | Cc1cnc(CC#N)cc1-c1ccc2c(ccc3sc4c(c32)NC[C@@H](C)NC4=O)n1 [Example I-267, (R)-2-(5-methyl-4-(10-methyl-8-oxo-9,10,11,12-tetrahydro-8H-[1,4]diazepino[5′,6′:4,5]thieno[3,2-f]quinolin-3-yl)pyridin-2-yl)acetonitrile]
0.116 | C[C@@H]1CNc2c(sc3ccc4nc(-c5cccc(Cl)n5)ccc4c23)C(=O)N1 [Example I-52, (R)-3-(6-chloropyridin-2-yl)-10-methyl-9,10,11,12-tetrahydro-8H-[1,4]diazepino[5′,6′:4,5]thieno[3,2-f]quinolin-8-one]
0.01 | [2H]C([2H])([2H])C(O)c1cnc(C=C)cc1-c1ccc2c(ccc3sc4c(c32)NC[C@@H](C)NC4=O)n1 (stereo partly drawn) [Example I-243, (10R)-3-(5-(1-hydroxyethyl-2,2,2-d3)-2-vinylpyridin-4-yl)-10-methyl-9,10,11,12-tetrahydro-8H-[1,4]diazepino[5′,6′:4,5]thieno[3,2-f]quinolin-8-one]
1 | C=C(C)c1ncc(COCC)c(-c2ccc3c(ccc4sc5c(c43)NC[C@@H](C)NC5=O)n2)n1 [Example I-50, (R)-3-(5-(ethoxymethyl)-2-(prop-1-en-2-yl)pyrimidin-4-yl)-10-methyl-9,10,11,12-tetrahydro-8H-[1,4]diazepino[5′,6′:4,5]thieno[3,2-f]quinolin-8-one]
0.499 | C=Cc1cnn(C)c1-c1ccc2c(ccc3sc4c(c32)NC[C@@H](C)NC4=O)n1 [Example I-146, (R)-10-methyl-3-(1-methyl-4-vinyl-1H-pyrazol-5-yl)-9,10,11,12-tetrahydro-8H-[1,4]diazepino[5′,6′:4,5]thieno[3,2-f]quinolin-8-one]
0.07 | C#Cc1cc(-c2ccc3c(ccc4sc5c(c43)NC[C@@H](C)NC5=O)n2)cc(N2CCNCC2)n1 [Example I-176, (R)-3-(2-ethynyl-6-(piperazin-1-yl)pyridin-4-yl)-10-methyl-9,10,11,12-tetrahydro-8H-[1,4]diazepino[5′,6′:4,5]thieno[3,2-f]quinolin-8-one]
0.011 | C=Cc1cc(-c2ccc3c(ccc4sc5c(c43)NCC(C)NC5=O)n2)cc(N2CC3CC2CO3)n1 (racemic) [Example I-216, rac-(10R)-3-(2-(2-oxa-5-azabicyclo[2.2.1]heptan-5-yl)-6-vinylpyridin-4-yl)-10-methyl-9,10,11,12-tetrahydro-8H-[1,4]diazepino[5′,6′:4,5]thieno[3,2-f]quinolin-8-one]
0.137 | C#Cc1cc(-c2ccc3c(ccc4sc5c(c43)NC[C@@H](C)NC5=O)n2)c(OCCN2CCOCC2)nn1 [Example I-134, (R)-3-(6-ethynyl-3-(2-morpholinoethoxy)pyridazin-4-yl)-10-methyl-9,10,11,12-tetrahydro-8H-[1,4]diazepino[5′,6′:4,5]thieno[3,2-f]quinolin-8-one]
0.003 | C#Cc1cc(-c2ccc3c(ccc4sc5c(c43)NC[C@@H](C)NC5=O)n2)cnn1 [Example I-51, (R)-3-(6-ethynylpyridazin-4-yl)-10-methyl-9,10,11,12-tetrahydro-8H-[1,4]diazepino[5′,6′:4,5]thieno[3,2-f]quinolin-8-one]
0.004 | C=Cc1cc(-c2ccc3c(ccc4sc5c(c43)NC[C@@H](C)NC5=O)n2)c(C)cn1 [Example I-109, (R)-10-methyl-3-(5-methyl-2-vinylpyridin-4-yl)-9,10,11,12-tetrahydro-8H-[1,4]diazepino[5′,6′:4,5]thieno[3,2-f]quinolin-8-one]
0.47 | C[C@@H]1CNc2c(sc3ccc4nc(-c5nc(Cl)ncc5CO)ccc4c23)C(=O)N1 [Example I-75, (R)-3-(2-chloro-5-(hydroxymethyl)pyrimidin-4-yl)-10-methyl-9,10,11,12-tetrahydro-8H-[1,4]diazepino[5′,6′:4,5]thieno[3,2-f]quinolin-8-one]
0.005 | C=Cc1cc(-c2ccc3c(ccc4sc5c(c43)NC[C@@H](C)NC5=O)n2)c(C2CC2)cn1 [Example I-196, (R)-3-(5-cyclopropyl-2-vinylpyridin-4-yl)-10-methyl-9,10,11,12-tetrahydro-8H-[1,4]diazepino[5′,6′:4,5]thieno[3,2-f]quinolin-8-one]
0.12 | C=Cc1ncc(C)c(-c2ccc3c(ccc4sc5c(c43)NC[C@@H](C)NC5=O)n2)n1 [Example I-33, (R)-10-methyl-3-(5-methyl-2-vinylpyrimidin-4-yl)-9,10,11,12-tetrahydro-8H-[1,4]diazepino[5′,6′:4,5]thieno[3,2-f]quinolin-8-one]
0.003 | C=C(CN1CCOCC1)c1cc(-c2ccc3c(ccc4sc5c(c43)NC[C@@H](C)NC5=O)n2)ccn1 [Example I-131, (R)-10-methyl-3-(2-(3-morpholinoprop-1-en-2-yl)pyridin-4-yl)-9,10,11,12-tetrahydro-8H-[1,4]diazepino[5′,6′:4,5]thieno[3,2-f]quinolin-8-one]
0.912 | C[C@@H]1CNc2c(sc3ccc4nc(-c5cc(Cl)nnc5OCCN5CCOCC5)ccc4c23)C(=O)N1 [Example I-132, (R)-3-(6-chloro-3-(2-morpholinoethoxy)pyridazin-4-yl)-10-methyl-9,10,11,12-tetrahydro-8H-[1,4]diazepino[5′,6′:4,5]thieno[3,2-f]quinolin-8-one]
1 | C=Cc1cc(C(F)(F)F)n(-c2ccc3c(ccc4sc5c(c43)NC[C@@H](C)NC5=O)n2)n1 [Example I-257, (R)-10-methyl-3-(5-(trifluoromethyl)-3-vinyl-1H-pyrazol-1-yl)-9,10,11,12-tetrahydro-8H-[1,4]diazepino[5′,6′:4,5]thieno[3,2-f]quinolin-8-one]
0.026 | C[C@@H]1CNc2c(sc3ccc4nc(-c5cc(N6CCN(C)CC6)nc(Cl)n5)ccc4c23)C(=O)N1 [Example I-16, (R)-3-(2-chloro-6-(4-methylpiperazin-1-yl)pyrimidin-4-yl)-10-methyl-9,10,11,12-tetrahydro-8H-[1,4]diazepino[5′,6′:4,5]thieno[3,2-f]quinolin-8-one]

Compound | IC50 [µM]
(R)-10-methyl-3-(6-(3-morpholinoprop-1-en-2-yl)pyrimidin-4-yl)-9,10,11,12-tetrahydro-8H-[1,4]diazepino[5′,6′:4,5]thieno[3,2-f]quinolin- [Example I-139] | 0.002
(R)-10-methyl-3-(6-(4-methylpiperazin-1-yl)-2-vinylpyrimidin-4-yl)-9,10,11,12-tetrahydro-8H-[1,4]diazepino[5′,6′:4,5]thieno[3,2-f]quinolin- [Example I-18] | 0.004
